In publication PMC12566046, “Arylpiperazinyl-Benzocycloheptapyrrole-Carboxamides Endowed with Dual Anticancer and Antiviral Activities” (Molecules, 2025):
Where two headings read alike, the source gives them in different places.

Legend:
NCI-60 cell line panel = assay: NCI-60 single-dose assay, whole panel; format: cell-based, human; details: summary over the panel
Source text: (§1) We first evaluated the cytotoxic activity of tricyclic-pyrrole carboxamides 1–20 using the NCI-60 cell line panel, representing nine different human cancers: leukemia, melanoma, and cancers of the lung, colon, central nervous system (CNS), ovary, kidney, prostate, and breast (the one-dose graph for compounds 1–20 is reported in Supplementary Materials, Figures S43–S62). Compounds 1, 5, 10, 11, 17, and 20 satisfied pre-determined threshold inhibition criteria in a minimum number of cell lines; therefore, they were also tested in the full five-dose assay (Figures S63–S68 in the Supplementary Materials).

[1] = test system: ZIKV, strain Brazil/2016/INMI1; assay: ZIKV viral yield reduction assay on Huh-7 cells; format: cell-based, Zika virus; details: for EC50: Zika virus
Method: We developed a protocol to screen the potential antiviral activity of compounds 1–20 against ZIKV (strain Brazil) on Huh-7 cells, against an H1N1 IAV strain (PR/8/1934) on MDCK cells, and against SARS-CoV-2 (strain Milano) on Vero-TMPRSS. Each compound was tested in duplicate at concentrations of 50 μM, 5 μM, and 0.5 μM. Treatment was applied immediately after infection, and at 24–48 h post-infection, supernatants were collected to assess viral yield, determined as PFU/mL for ZIKV and SARS-CoV-2 or as TCID50/mL for IAV. The test allowed us to evaluate both the antiviral action and the cytotoxicity of each compound, comparing them with reference compounds, such as sofosbuvir for ZIKV and EIDD-1931 for IAV and SARS-CoV-2 (Supplementary Materials, Figures S87–S89).
Viral yield reduction assays for ZIKV and SARS-CoV-2 were performed as previously described by Plicanti. Briefly, 1 × 10^4 Huh-7 cells/well and 1.2 × 10^4 VERO TMPRSS cells/well were infected with ZIKV (MOI 1) or SARS-CoV-2 (MOI 0.05) in a primary 96-well plate for 2 h at 37 °C, 5% CO2. […] Supernatants were collected after 48 h (Huh-7) or 24 h (VERO TMPRSS), diluted 3-fold, and added onto VERO E6 or VERO TMPRSS monolayers, respectively. After 2 h at 37 °C, the inoculum was replaced with 0.75% carboxymethyl cellulose (Merck®, Darmstadt, Germany) in DMEM 2% FBS. After 48–72 h, cells were then fixed with 4% buffered formalin solution (Merck®, Darmstadt, Germany) and stained with 1% crystal violet (Merck®, Darmstadt, Germany). Titres and percentage of inhibition were calculated as follows:
PFU/mL = number of plaques*3^n/vol infection, where n is the dilution where plaques were counted:% inhibition = 100 × (1 − Titre-compound/Titre-untreated control) where Titre-compound and Titre-untreated control are the titres (PFU/mL) obtained on cells treated with compound or DMSO, respectively.
SI was obtained by dividing CC50 by EC50 for each drug/virus/cell line. Compounds with SI values ≥ 10 were active in vitro.

[2] = Cytotoxicity on uninfected Huh-7 cells (WST-8, crystal violet); details: human, uninfected Huh-7 cells
[3] = test system: K-562 (leukemia cell line); assay: NCI-60 single-dose assay; format: cell-based; details: Homo sapiens, K562, read-out: growth inhibition (GI%) and cytotoxicity (negative values)
Source text: as §1

[4] = test system: CCRF-CEM (leukemia cell line); assay: NCI-60 single-dose assay; format: cell-based, human; details: Homo sapiens, read-out: growth inhibition (GI%) and cytotoxicity (negative values)
Source text: as §1

[5] = test system: COLO 205 (colon cancer cell line); assay: NCI-60 single-dose assay; format: cell-based, human; details: Homo sapiens, COLO 205, read-out: growth inhibition (GI%) and cytotoxicity (negative values)
Source text: as §1

[6] = test system: HCC-2998 (colon cancer cell line); assay: NCI-60 single-dose assay; format: cell-based, human; details: Homo sapiens, HCC 2998, read-out: growth inhibition (GI%) and cytotoxicity (negative values)
Source text: as §1

[7] = test system: HCT-116 (colon cancer cell line); assay: NCI-60 single-dose assay; format: cell-based, human; details: Homo sapiens, HCT-116, read-out: growth inhibition (GI%) and cytotoxicity (negative values)
Source text: as §1

[8] = test system: HCT-15 (colon cancer cell line); assay: NCI-60 single-dose assay; format: cell-based, human; details: Homo sapiens, HCT-15, read-out: growth inhibition (GI%) and cytotoxicity (negative values)
Source text: as §1

[9] = test system: HL-60(TB) (leukemia cell line); assay: NCI-60 single-dose assay; format: cell-based, human; details: Homo sapiens, HL-60, read-out: growth inhibition (GI%) and cytotoxicity (negative values)
Source text: as §1

[10] = test system: HT29 (colon cancer cell line); assay: NCI-60 single-dose assay; format: cell-based, human; details: Homo sapiens, HT-29, read-out: growth inhibition (GI%) and cytotoxicity (negative values)
Source text: as §1

[11] = test system: KM12 (colon cancer cell line); assay: NCI-60 single-dose assay; format: cell-based, human; details: Homo sapiens, KM12, read-out: growth inhibition (GI%) and cytotoxicity (negative values)
Source text: as §1

M14 (melanoma cell line) = assay: NCI-60 single-dose assay; format: cell-based, human; details: Homo sapiens, M14, read-out: growth inhibition (GI%) and cytotoxicity (negative values)
Source text: as §1

[12] = test system: MOLT-4 (leukemia cell line); assay: NCI-60 single-dose assay; format: cell-based, human; details: Homo sapiens, MOLT-4, read-out: growth inhibition (GI%) and cytotoxicity (negative values)
Source text: as §1

[13] = test system: NCI-H460 (non-small cell lung cancer cell line); assay: NCI-60 single-dose assay; format: cell-based, human; details: Homo sapiens, NCI-H460, read-out: growth inhibition (GI%) and cytotoxicity (negative values)
Source text: as §1

[14] = test system: RPMI-8226 (leukemia cell line); assay: NCI-60 single-dose assay; format: cell-based, human; details: Homo sapiens, RPMI-8226, read-out: growth inhibition (GI%) and cytotoxicity (negative values)
Source text: as §1

[15] = test system: SK-MEL-5 (melanoma cell line); assay: NCI-60 single-dose assay; format: cell-based, human; details: Homo sapiens, SK-MEL-5, read-out: growth inhibition (GI%) and cytotoxicity (negative values)
Source text: as §1

SR (leukemia cell line) = assay: NCI-60 single-dose assay; format: cell-based, human; details: Homo sapiens, read-out: growth inhibition (GI%) and cytotoxicity (negative values)
Source text: as §1

[16] = test system: SW-620 (colon cancer cell line); assay: NCI-60 single-dose assay; format: cell-based, human; details: Homo sapiens, SW-620, read-out: growth inhibition (GI%) and cytotoxicity (negative values)
Source text: as §1

[17] = test system: SARS-CoV-2 VR PV10734 (strain Milano); assay: microbe, parasite or virus in culture; format: cell-based
in vitro [18] = details: dog
in vitro [19] = details: African green monkey
[20] = test system: MCF-7 (breast cancer cell line); assay: NCI-60 single-dose assay; format: cell-based, human; details: Homo sapiens, MCF7, read-out: growth inhibition (GI%) and cytotoxicity (negative values), MCF-7, 10^−5 M
Source text: as §1

in vitro [21] = details: human
[22] = test system: IAV strain A/PR/8/34 (H1N1)
MDCK cells = assay: Cytotoxicity on uninfected MDCK cells (WST-8, crystal violet)
[23] = preliminary screening (50, 5, 0.5 μM), Huh-7, read-out: ZIKV/Huh‐7 EC50
[24] = Huh-7, read-out: ZIKV/Huh‐7 EC50
[25] = Severe acute respiratory syndrome coronavirus 2, preliminary screening (50, 5, 0.5 μM), Vero TMPRSS, read-out: SARS‐CoV‐2/Vero TMPRSS EC50

Row | SMILES | growth inhibition (GI%) reached against cancer cell lines of the NCI-60 panel (NCI-60 cell line panel) [%] | EC50 [1, 23] [µM] | CC50 at 48 h [2] [µM] | inhibition at 10 µM [3] [%] | inhibition at 10 µM [7] [%] | inhibition at 10 µM [15] [%] | EC50 [1, 24] [µM] | EC50 [17, 25] [µM] | CC50 (in vitro [18]) [µM] | CC50 at 24 h (in vitro [19]) [µM] | also measured
1 | O=C(NCCN1CCN(c2ccccc2)CC1)c1[nH]c2c(c1Cl)CCCc1ccccc1-2 [Compound 2, 3-Chloro-N-(2-(4-phenylpiperazin-1-yl)ethyl)-1,4,5,6-tetrahydrobenzo[6,7]cyclohepta[1,2-b]pyrrole-2-carboxamide] | < 60 | 43.9 | < 50 | – | – | – | – | – | – | – | –
2 | CCOc1ccccc1N1CCN(CCNC(=O)c2[nH]c3c(c2Cl)CCCc2ccccc2-3)CC1 [Compound 7] | – | – | 50.7 | 82.6 | 76.1 | 77.7 | 3.82 | 37.3 | 5.6 | 38.5 | inhibition at 10 µM [4]: < 60%; inhibition at 10 µM [5]: 88.8%; inhibition at 10 µM [6]: < 60%; inhibition at 10 µM [8]: 82.1%; inhibition at 10 µM [9]: < 60%; inhibition at 10 µM [10]: 72.7%; inhibition at 10 µM [11]: < 60%; inhibition at 10 µM (M14 (melanoma cell line)): 88.6%; inhibition at 10 µM [12]: 66.5%; inhibition at 10 µM [13]: 60.8%; inhibition at 10 µM [14]: 63.4%; inhibition at 10 µM (SR (leukemia cell line)): 70%; inhibition at 10 µM [16]: < 60%
3 | O=C(NCCN1CCN(c2ccccc2Cl)CC1)c1[nH]c2c(c1Cl)CCCc1ccccc1-2 [Compound 4] | – | – | 59.9 | – | – | – | 4.39 | 42.5 | 14.7 | 57.9 | inhibition at 10 µM [20]: 60%
4 | O=C(NCCN1CCN(c2ccc(Cl)cc2)CC1)c1[nH]c2c(c1Cl)CCCc1ccccc1-2 [Compound 3] | < 60 | 3.24 | 62.6 | – | – | – | – | – | – | 143 | –
5 | CC(C)OC(=O)[C@H](C)N[P@](=O)(OC[C@H]1O[C@@H](n2ccc(=O)[nH]c2=O)[C@](C)(F)[C@@H]1O)Oc1ccccc1 [sofosbuvir, reference compound] | – | 2.07 | 300 | – | – | – | – | – | – | – | selectivity index (SI) ([1]; ZIKV, Huh-7 cells, CC50/EC50): 178.32; EC50 ([1]; ZIKV, Huh-7 cells, 48 h, full dose-response, read-out: EC50): 1.47 µM; CC50 (in vitro [21]): 262 µM
6 | N#Cc1ccccc1N1CCN(CCNC(=O)c2[nH]c3c(c2Cl)CCCc2ccccc2-3)CC1 [Compound 8, 3-Chloro-N-(2-(4-(2-cyanophenyl)piperazin-1-yl)ethyl)-1,4,5,6-tetrahydrobenzo[6,7]cyclohepta[1,2-b]pyrrole-2-carboxamide] | – | 2.87 | 50.6 | 62.4 | – | 75.3 | – | 58.4 | 119 | 67.5 | –
7 | COc1cccc(N2CCN(CCNC(=O)c3[nH]c4c(c3Cl)CCCc3ccccc3-4)CC2)c1 [Compound 6] | – | – | 53.5 | – | 64 | – | 3.24 | – | 66 | 121 | –
8 | O=C(NCCN1CCN(c2ccc(Cl)c(Cl)c2)CC1)c1[nH]c2c(c1Cl)CCCc1ccccc1-2 [Compound 9] | < 60 | 3.24 | 65.5 | – | – | – | – | – | – | 67.7 | –
9 | COc1cccc(N2CCN(CCNC(=O)c3c(Cl)[nH]c4c3CCCc3ccccc3-4)CC2)c1 [Compound 16] | – | – | – | 77.6 | < 60 | 88.6 | – | – | 42.9 | 50.2 | inhibition at 10 µM [4]: < 60%; inhibition at 10 µM [5]: < 60%; inhibition at 10 µM [6]: < 60%; inhibition at 10 µM [8]: < 60%; inhibition at 10 µM [9]: < 60%; inhibition at 10 µM [10]: 74.9%; inhibition at 10 µM [11]: < 60%; inhibition at 10 µM [20]: 73%; inhibition at 10 µM [12]: < 60%; inhibition at 10 µM [14]: 60%; inhibition at 10 µM (SR (leukemia cell line)): 73.6%; inhibition at 10 µM [16]: < 60%
10 | O=c1nc(NO)ccn1[C@@H]1O[C@H](CO)[C@@H](O)[C@H]1O [EIDD-1931, reference compound] | – | – | – | – | – | – | – | – | – | – | EC50 ([17]; SARS-CoV-2, VERO TMPRSS cells, 24 h, full dose-response, read-out: EC50): 0.05 µM; EC50 ([17]; preliminary screening (50, 5, 0.5 μM), Vero TMPRSS, read-out: SARS‐CoV‐2/Vero TMPRSS EC50): 0.11 µM; EC50 ([22]; IAV, MDCK cells, 48 h, full dose-response): 0.39 µM; IAV/MDCK SI ([22]; preliminary screening): < 24.15; EC50 ([22]; read-out: IAV/MDCK EC50, preliminary screening (50, 5, 0.5 μM), MDCK): 2.07 µM; CC50 (Vero TMPRSS cells; VERO TMPRSS cells, 24 h, full dose-response): 22.2 µM; CC50 (Vero TMPRSS cells; read-out: SARS‐CoV‐2/Vero TMPRSS CC50, preliminary screening (50, 5, 0.5 μM), Vero TMPRSS): 13.4 µM; CC50 (MDCK cells; MDCK cells, 48 h, full dose-response): 138 µM; CC50 (MDCK cells; read-out: IAV/MDCK CC50, preliminary screening (50, 5, 0.5 μM), MDCK): < 50 µM
